Measured values: patent publication US20210267996A1, “Compounds for inhibition of inflammation” (Children`s Medical Center Corporation, priority 2018, published 2021)
“Also recorded” adds a separate entry of the source.

Assays:
[1] = target: C38A GSDMD (Homo sapiens, UniProt P57764, C38A); test: Liposome leakage assay, C38A GSDMD plus caspase-11; type: biochemical
[2] = system: IL-1β; test: IL-1β secretion by ELISA, iBMDM with LPS transfection; type: cell-based, mouse; settings: 40 μM
Description: (§1) Measurement of cytokines: concentrations of IL-1 (3 in culture supernatants or mouse serum were measured by ELISA kit (R&D Systems) according to the manufacturer's instructions. […] The number of surviving cells was determined by CellTiter-Glo assay (FIGS. 4 and 6) and IL-1β in culture supernatants was assessed by ELISA (FIG. 8) 2 hrs later. […] The number of surviving cells was determined by CellTiter-Glo assay (FIGS. 5 and 7) and IL-1β in culture supernatants was assessed by ELISA (FIG. 9) 2.5 hrs later.

[3] = target: T1, human GSDMD-3C (Homo sapiens, UniProt P57764); test: Liposome leakage assay, GSDMD-3C plus 3C protease; type: biochemical; settings: GSDMD-3C plus 3C protease
T1 construct: other: GSDMD-3C plus 3C protease; fused on or other part: His6-MBP tag, removed by TEV before use; The engineered 3C site is cut in the well by 3C protease and sets free GSDMD-NT
Description: Liposome leakage assay: fluorogenic liposome leakage assay detects leakage of Tb^3+ from Tb^3+-loaded liposomes incubated with GSDMD and caspase-11 (See References 7 and 9). Liposome leakage was detected by an increase in fluorescence when Tb^3+ bound to dipicolinic acid (DPA) in Buffer C. […] The fluorescence intensity of the well was measured at 545 nm with an excitation of 276 nm 1 hr after addition of caspase-11 using a Perkin Elmer EnVision plate reader. The final percent inhibition was calculated as [(fluorescencetest compound−fluorescencenegative control)/(fluorescencepositive control−fluorescencenegative control)]×100, where a well with GSDMD without the test compound was used as positive control, and a well without caspase-11 was used as negative control.
[LC retention time. […] (b).
To determine the relative contribution of caspase-11 inhibition versus GSDMD inhibition by disulfiram in pore formation, the caspase cleavage site in GSDMD was replaced with the rhinovirus 3C protease site (GSDMD-3C) and the 3C protease was used instead of caspase-11 in the liposome leakage assay.

[4] = system: HT-29 cells; test: Necroptosis induced by TNFα, SMAC mimetic and z-VAD-fmk; type: cell-based; settings: SMAC mimetic
Description: Inhibition was shown by cell survival, assessed by CellTiter-Glo ATP luminescence, and membrane permeabilization, assessed by uptake of the membrane-impermeable dye SYTOX Green.

[5] = system: caspase-1, GSDMD, and pro-IL-1β; test: Caspase-1, GSDMD, pro-IL-1β cleavage and IL-1β secretion by immunoblot, THP-1; type: cell-based, human
[6] = system: HEK293T cells; test: LDH release of HEK293T cells expressing caspase-11 and GSDMD; type: cell-based
Description: FIG. 72 contains a bar graph showing results of an experiment when FL human WT or C191S GSDMD were co-expressed with caspase-11 in HEK293T cells. 8 h post transfection, the indicated amount of disulfiram was added and cell death was determined by LDH release 12 h later.
Cytotoxicity and cell viability assays: cell death and cell viability were determined by the lactate dehydrogenase release assay using the CytoTox 96 Non-Radioactive Cytotoxicity Assay kit (Promega) and by measuring ATP levels using the CellTiter-Glo Luminescent Cell Viability Assay (Promega), respectively, according to the manufacturer's instructions. Luminescence and absorbance were measured on a BioTek Synergy 2 plate reader.
To further confirm that disulfiram acts on Cys191, disulfiram inhibition of LDH release in HEK293T cells expressing caspase-11 and WT or C191S GSDMD was assessed.

[7] = system: IL-1β; test: IL-1β secretion by ELISA, THP-1 plus nigericin; type: cell-based, human; settings: THP-1, 40 μM
Description: as §1

[8] = target: T2, human GSDMD-3C (Homo sapiens, UniProt P57764); test: Pore reconstitution on nanodiscs, negative staining EM
T2 sequence (P57764 1-271 limits assumed): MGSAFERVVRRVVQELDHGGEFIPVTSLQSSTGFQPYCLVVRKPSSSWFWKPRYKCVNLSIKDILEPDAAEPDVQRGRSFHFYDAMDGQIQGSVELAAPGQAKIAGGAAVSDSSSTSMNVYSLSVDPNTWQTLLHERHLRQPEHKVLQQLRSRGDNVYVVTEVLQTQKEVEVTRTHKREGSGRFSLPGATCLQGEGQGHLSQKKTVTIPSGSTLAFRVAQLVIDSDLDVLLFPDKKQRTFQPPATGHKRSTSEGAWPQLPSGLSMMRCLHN
Description: To form GSDMD pores on the nanodiscs, purified human GSDMD-3C was incubated with 3C protease in the presence of nanodiscs for 6 hrs on ice. […] For negative staining electron microscopy, a 5-μl sample was placed onto a glow-discharged carbon-coated copper grid (Electron Microscopy Sciences), washed twice with Buffer A, stained with 1% uranyl formate for 1 min, and air-dried. The grids were imaged on the Tecnai G^2 Spirit BioTWIN electron microscope and recorded with an AMT 2 k CCD camera (Harvard Medical School Electron Microscopy Facility).
3C protease cleavage of the engineered GSDMD-3C liberates an active NT fragment.

[9] = target: T3, Alexa 488-labeled His-MBP-GSDMD (Homo sapiens, UniProt P57764); test: Microscale thermophoresis (MST) binding assay
T3 construct: made in house; host or cells: E. coli BL21 (DE3)
Description: Fluorescent protein labelling and microscale thermophoresis binding assay: His6-MBP-GSDMD was labeled with AlexaFluor-488 using the Molecular Probes protein labelling kit. Binding of inhibitors to GSDMD was evaluated using microscale thermophoresis (MST). Ligands (49 nM-150 μM) were incubated with purified AlexaFluor-488-labeled protein (80 nM) for 30 min in assay buffer (20 mM HEPES, 150 mM NaCl, 0.05% Tween 20). The sample was loaded into NanoTemper Monolith NT. 115 glass capillaries and MST carried out using 20% LED power and 40% MST power. Kd values were calculated using the mass action equation and NanoTemper software.
The test compounds were assessed for GSDMD binding by microscale thermophoresis (MST).

[10] = target: C191A GSDMD (Homo sapiens, UniProt P57764, C191A)
[11] = system: THP-1 cells; test: Canonical inflammasome pyroptosis, LPS-primed THP-1 cells plus nigericin; type: cell-based, human; settings: THP-1, nigericin
Description: Cell viability assay. […] Primed THP-1 cells were pretreated with each test compound for 1 hr before addition of 20 μM nigericin or medium as control. The number of surviving cells was determined by CellTiter-Glo assay 1.5 hrs later. The final percent cell viability was calculated using the formula [(luminescencetest compound−luminescencencenegative control)/(luminescencencepositive control−luminescencenegative control)]×100, where wells with only LPS were used as positive controls and wells treated with LPS and nigericin were used as negative controls.
Cells were verified to be free of mycoplasma contamination.
In FIGS. 4, 6, and 8, PMA-differentiated LPS-primed human THP-1 were pre-treated with indicated concentrations of each compound for 1 h before adding nigericin or medium. The number of surviving cells was determined by CellTiter-Glo assay (FIGS. 4 and 6) and IL-1β in culture supernatants was assessed by ELISA (FIG. 8) 2 hrs later. […] In FIGS. 8 and 9, 40 μM concentration of test compounds were added. […] Graphs show the mean±s.d. and data shown are representative of three independent experiments. **P<0.01.

T3 sequence (P57764 whole entry): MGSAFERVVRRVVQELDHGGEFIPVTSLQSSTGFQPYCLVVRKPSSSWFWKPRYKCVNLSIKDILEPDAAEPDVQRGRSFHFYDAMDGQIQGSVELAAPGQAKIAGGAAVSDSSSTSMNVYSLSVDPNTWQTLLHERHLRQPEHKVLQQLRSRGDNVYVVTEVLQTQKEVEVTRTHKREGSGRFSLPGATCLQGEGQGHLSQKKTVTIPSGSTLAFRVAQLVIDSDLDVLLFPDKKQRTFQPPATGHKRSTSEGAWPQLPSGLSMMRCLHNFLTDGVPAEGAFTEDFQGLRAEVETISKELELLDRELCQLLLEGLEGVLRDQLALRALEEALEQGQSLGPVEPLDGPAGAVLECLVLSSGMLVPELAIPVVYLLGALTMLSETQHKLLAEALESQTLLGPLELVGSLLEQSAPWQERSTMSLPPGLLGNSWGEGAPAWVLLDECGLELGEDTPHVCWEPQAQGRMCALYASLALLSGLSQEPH
Sequence of C38A GSDMD (P57764 whole entry C38A): as the sequence (P57764 whole entry) above, with C38A counted along it
Sequence of C191A GSDMD (P57764 whole entry C191A): as the sequence (P57764 whole entry) above, with C191A counted along it

Compound	IC50 [1] [nM]	LPS transfection-induced IL-1β secretion [2]	IC50 [3] [nM]	necroptosis [4]	caspase-1, GSDMD, pro-IL-1β processing and IL-1β secretion ([5]; 1 μM with copper gluconate)	caspase-1, GSDMD, pro-IL-1β processing and IL-1β secretion ([5]; 1 μM without copper)	C191S GSDMD-induced cell death (LDH release) ([6]; caspase-11 plus C191S GSDMD)	WT GSDMD-induced cell death (LDH release) ([6]; caspase-11 plus WT GSDMD)	nigericin-induced IL-1β secretion [7]	effect on already assembled pores ([8]; added after pore formation)	pore formation on nanodiscs ([8]; pretreated before adding to nanodiscs)	binding to GSDMD according to MST [9]	fold loss of liposome leakage inhibition, C191A versus WT GSDMD [10] [fold]	inhibition of canonical inflammasome pyroptosis [11]
CCN(CC)C(=S)SSC(=S)N(CC)CC [C-23, Tetraethylthiuram disulfide]	~300	potency comparable to the pan-caspase inhibitor z-VAD-fmk	520 ± 30	had no effect on necroptosis	completely blocked	had no effect	only inhibited when 4 times as much disulfiram was added	strongly inhibited	potency comparable to the pan-caspase inhibitor z-VAD-fmk	did not disrupt already assembled pores	completely blocked	–	–	–
Cc1ccc(S(=O)(=O)/C=C/C#N)cc1 [Bay 11-7082]	–	–	–	–	–	–	–	–	–	–	–	bound to GSDMD; also recorded: lower affinity	2	also inhibits the canonical inflammasome pathway; also recorded: more effective at inhibiting canonical inflammasome-dependent pyroptosis than disulfiram in the absence of copper
